From US7563781B2, “Triazolopyrimidine derivatives” (Janssen Pharmaceutica NV, priority 2006, dated 2009)

Columns and labels:
[1] = molecular target: T1, Focal Adhesion Kinase (full-length Flag-tagged human FAK) (Homo sapiens, UniProt Q05397); assay: in vitro FAK ELISA kinase assay; assay type: biochemical; conditions: compound 10 uM; ATP 2 uM; read-out: FAK % Inhib ave: 10 uM
T1 construct: a purified recombinant full-length Flag-tagged human FAK protein; Flag; made in house; host or cells: baculovirus infected insect cells
T1 sequence (Q05397 whole entry): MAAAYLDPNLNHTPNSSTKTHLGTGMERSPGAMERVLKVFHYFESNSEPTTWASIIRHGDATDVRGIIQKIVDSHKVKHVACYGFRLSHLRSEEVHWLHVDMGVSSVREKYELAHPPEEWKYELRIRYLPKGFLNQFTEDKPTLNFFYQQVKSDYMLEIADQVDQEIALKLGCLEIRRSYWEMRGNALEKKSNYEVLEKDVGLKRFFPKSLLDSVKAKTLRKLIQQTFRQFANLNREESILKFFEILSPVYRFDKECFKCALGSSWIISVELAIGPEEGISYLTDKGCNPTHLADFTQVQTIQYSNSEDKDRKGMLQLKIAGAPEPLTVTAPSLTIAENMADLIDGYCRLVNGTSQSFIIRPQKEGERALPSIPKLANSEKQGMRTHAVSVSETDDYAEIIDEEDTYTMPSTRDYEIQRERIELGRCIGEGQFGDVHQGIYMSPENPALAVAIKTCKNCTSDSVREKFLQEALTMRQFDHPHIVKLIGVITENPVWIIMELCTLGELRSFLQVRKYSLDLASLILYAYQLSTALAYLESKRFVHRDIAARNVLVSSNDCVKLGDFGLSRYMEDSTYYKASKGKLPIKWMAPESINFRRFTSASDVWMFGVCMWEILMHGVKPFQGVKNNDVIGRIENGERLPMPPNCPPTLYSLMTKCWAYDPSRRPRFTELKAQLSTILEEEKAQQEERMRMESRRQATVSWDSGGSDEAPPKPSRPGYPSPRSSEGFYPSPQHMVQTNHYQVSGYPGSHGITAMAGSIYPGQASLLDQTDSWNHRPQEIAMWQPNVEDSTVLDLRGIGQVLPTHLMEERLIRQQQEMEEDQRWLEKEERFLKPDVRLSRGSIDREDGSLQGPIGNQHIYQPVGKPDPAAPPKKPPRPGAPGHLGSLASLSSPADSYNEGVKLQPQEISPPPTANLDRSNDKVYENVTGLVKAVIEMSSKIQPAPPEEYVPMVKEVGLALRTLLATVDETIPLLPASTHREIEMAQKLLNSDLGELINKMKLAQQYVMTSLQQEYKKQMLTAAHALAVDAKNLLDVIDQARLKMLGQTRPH
Description: Compound effects on the tyrosine kinase activity of Focal Adhesion Kinase were assessed with an in vitro FAK ELISA kinase assay. This assay measures the incorporation of phosphate from ATP into a FAK substrate protein using an antibody specific for phospho-tyrosine.
500 ng of FAKsubstrate, a purified recombinant fusion protein of GST and a 73 amino acid region surrounding the Tyr397 human FAK autophosphorylation site, was coated in a high-protein binding polystyrene 96 well plate overnight in a buffer containing 50 mM Hepes, pH 7.5, 150 mM NaCl, 0.1 mM Na-oVO4, 0.1 mM NaF and 1 protease inhibitor tablet/10 mL (Complete Mini-EDTA-free, Roche). The next day this solution was removed and the wells were incubated with 0.2% BSA in 50 mM Hepes, pH 7.5, 150 mM NaCl, 0.2 mM PMSF for 1 hour at 30° C. to block unoccupied protein binding sites. The wells were then washed with 50 mM Hepes, pH 7.5, 150 mM NaCl, 0.1% Tween 20. The kinase reaction was performed with 25 ng/well of FAK enzyme (a purified recombinant full-length Flag-tagged human FAK protein made in baculovirus infected insect cells) in 0.1 mL of a buffer containing 25 mM Hepes, pH 7.5, 5 mM MgCl2, 0.5 mM MnCl2, 10 uM NaoVO4, 0.2 mM PMSF. Compounds were added from 30% DMSO stock solutions for a screening concentration of 10 uM or IC50 determinations from 50 uM in half-log dilutions. The reaction is initiated with addition of ATP to a final concentration of 2 uM and incubated at 30° C. for 1 hour. Following the kinase reaction step, the wells were washed and incubated with 50 ng of Horseradish Peroxidase conjugated anti-phosphotyrosine antibody (PT-66 HRP, Sigma) in 0.1 mL wash buffer for 1 hour at 30° C. Wells were then washed and 0.1 mL HRP substrate, Tetra-methyl Benzidine (Sigma) was added and the color reaction allowed to proceed for 2-3 minutes followed by the addition of 0.1 mL of 1N H2SO4 to stop the HRP reaction. Percent inhibition of FAK kinase activity was calculated by comparing compound containing wells to wells treated with diluent only. Background was subtracted from all wells and was defined as the activity of FAK using 500 ng/well of BSA as a substrate. IC50 values were obtained using Prism data analysis software.

[2] = molecular target: T2, CAK complex (human Cdk7, human Cyclin H, MAT-1) (Homo sapiens, UniProt P50613); assay: in vitro time-resolved-fluorescence assay for the CAK kinase activity; assay type: biochemical; conditions: compound 20 uM; read-out: CAK % inhib; 20 uM
T2 construct: made in house; host or cells: SF-900 insect cells co-infected with Flag-Cdk7 and Bab-Cyclin H baculoviruses
T2 sequence (P50613 with tags, fused parts or gaps): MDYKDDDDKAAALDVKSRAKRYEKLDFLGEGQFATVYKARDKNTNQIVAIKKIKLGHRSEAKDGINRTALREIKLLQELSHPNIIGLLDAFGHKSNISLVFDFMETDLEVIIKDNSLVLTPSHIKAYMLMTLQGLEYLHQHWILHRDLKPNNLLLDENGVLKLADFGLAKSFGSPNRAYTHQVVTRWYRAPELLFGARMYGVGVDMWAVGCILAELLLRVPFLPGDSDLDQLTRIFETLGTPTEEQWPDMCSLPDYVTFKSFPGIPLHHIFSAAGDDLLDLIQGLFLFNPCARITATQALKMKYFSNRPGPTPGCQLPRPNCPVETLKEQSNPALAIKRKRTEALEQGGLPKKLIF
T2 sequence (as listed by the source partner): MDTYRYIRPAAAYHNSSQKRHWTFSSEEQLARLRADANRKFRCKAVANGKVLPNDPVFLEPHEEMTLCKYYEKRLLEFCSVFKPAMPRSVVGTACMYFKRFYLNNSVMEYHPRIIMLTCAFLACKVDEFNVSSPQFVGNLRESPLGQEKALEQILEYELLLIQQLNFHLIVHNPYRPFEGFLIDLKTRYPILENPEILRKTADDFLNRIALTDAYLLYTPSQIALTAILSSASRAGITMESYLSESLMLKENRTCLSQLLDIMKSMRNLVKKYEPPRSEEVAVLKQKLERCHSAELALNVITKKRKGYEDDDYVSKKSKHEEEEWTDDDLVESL
Text: Cyclin Dependent Kinase Activating Kinase (CAK) is a complex of proteins that phosphorylates a well-conserved threonine (Thr) residue in all mammalian cyclin dependent kinases (cdks). The CAK complex can also phosphorylate several components of the transcriptional machinery, such as the C-terminal domain (CTD) of RNA polymerase II in the TFIIH transcription complex. The CAK complex localizes to the nucleus, and is composed of three proteins: Cdk7, Cyclin H, and MAT-1. The exemplified method teaches the cloning and expression CAK subunits, particularly a human Cdk7 and a human Cyclin H. The method of the present invention exemplified herein is equally applicable to the cloning and expression of any CAK subunit, such as variants, structural or functional polymorphisms of the human Cdk7 or the human Cyclin H, or their orthologs in other animals such as rat, mouse, pig, dog and monkey.
The CAK complex was purified from co-infected SF-900 insect cells at 48 hours post infection by batch immunoaffinity purification. The infected cells were pelleted by centrifugation and lysed in 1/10 of the culture volume in a solution containing 50 mM Hepes pH 7.5, 10 mM MgCl2, 1 mM DTT, 10 mM Beta-Glycerol phosphate, 20 uM Na-oVO4, 0.2 mM PMSF and 1 μg/mL each of leupeptin, aprotinin, and pepstatin on ice. Cells were mechanically lysed by trituration through a 22-gauge needle followed by sonication or alternately by nitrogen cavitation. The lysed cells were centrifuged at 50,000×G for 1 hour at 4° C. to remove debris and the supernatant was applied to 1/10 volume of prewashed Flag-M2 immunoaffinity resin (Sigma). The CAK complex, by nature of the Flag tagged Cdk7 protein, was allowed to bind to the Flag antibody of the resin overnight at 4° C. with gentle rocking. The resin was washed 4 times with 5 resin volumes of lysis buffer and the bound proteins were eluted by competition with 0.5 mg/mL Flag peptide ([…], American Peptide Co, Inc., SEQ ID NO: 16) in a total of 2 resin volumes. To remove the Flag peptide, the eluted material was applied to PD-10 gel filtration columns (Pharmacia) under conditions recommended by the manufacturer.
Measurement of CAK kinase activity was accomplished using an antibody methodology in which a Europium labeled antibody binds preferentially to serine phosphorylated GST-CTD substrate. The long-lived europium label fluorescence allows a greater signal-to-noise ratio due to the delay in reading the emission wavelength, thereby eliminating signals from immediate fluorescence and fluorescent pharmaceutical screening compounds.
The time-resolved-fluorescence assay for the CAK kinase activity is performed as follows. In a well of a black glutathione coated 96 well micro titer plate (Pierce Chemical, No. 15360), the following reagents were added: 1) 25 ul substrate solution containing 500 ng purified GST-CTD in a buffer having 50 mM Hepes pH 7.5, 10 mM MgCl2, 1 mM DTT, 0.2 mM PMSF, 40 uM Na-oVO4, and 22 uM ATP (as a background control, the buffer, including ATP but not substrate was added); 2) 2.5 ul of screening compounds in a diluent containing 30% DMSO/25 mM Hepes pH7.5 (As a control, the diluent only was added. Typically the final concentration of compound is 1 uM); and 3) 250 ng CAK enzyme complex in enzyme buffer containing 25 ul of 50 mM Hepes pH 7.5, 10 mM MgCl2, 1 mM DTT, 0.2 mM PMSF, and 40 uM Na-oVO4. The micro titer plate was shaken for 2 minutes on a titer plate shaker and allowed to incubate at 30° C. for 20 minutes.
Subsequently, Kinase Stop Solution (75 mM EDTA, 0.2 mM PMSF, 1 mM DTT, 120 uM Na oVO4 in PBS) was added (50 ul/well). The plate was shaken for 2 minutes and incubated overnight at room temperature to allow substrate binding to the wells. The plate contents were flicked out, and the wells of the plate were washed 4 times with 350 ul of wash buffer (Delphia wash buffer, Perkin-Elmer, Inc.). The plate was tapped dry. […]

Compound: CCCCNS(=O)(=O)c1ccc(OC)c(-n2nnc3cnc(Nc4ccc(C(=O)NCCN(CC)CC)cc4)nc32)c1 [Compound 86, 4-[3-(5-Butylsulfamoyl-2-methoxy-phenyl)-3H-[1,2,3]triazolo[4,5-d]pyrimidin-5-ylamino]-N-(2-diethylamino-ethyl)-benzamide]
- inhibition at 10 µM [1]: 65.1%
- inhibition at 20 µM [2]: 110%

Compound: c1cc(Nc2ncc3nnn(-c4cccc(-c5cnco5)c4)c3n2)cc(-c2cnco2)c1 [Compound 85, (3-Oxazol-5-yl-phenyl)-[3-(3-oxazol-5-yl-phenyl)-3H-[1,2,3]triazolo[4,5-d]pyrimidin-5-yl]-amine]
- inhibition at 10 µM [1]: 47.8%
- inhibition at 20 µM [2]: 9.49%

Compound: CCN(CC)CCNC(=O)c1ccc(Nc2ncc3nnn(Cc4nc5ccccc5[nH]4)c3n2)cc1 [Compound 71, 4-[3-(1H-Benzoimidazol-2-ylmethyl)-3H-[1,2,3]triazolo[4,5-d]pyrimidin-5-ylamino]-N-(2-diethylamino-ethyl)-benzamide]
- inhibition at 10 µM [1]: 27.5%
- inhibition at 20 µM [2]: 52.8%

Compound: CCN(CC)CCNC(=O)c1ccc(Nc2ncc3nnn(Cc4ccc(N(C)C)cc4)c3n2)cc1 [Compound 69, N-(2-Diethylamino-ethyl)-4-[3-(4-dimethylamino-benzyl)-3H-[1,2,3]triazolo[4,5-d]pyrimidin-5-ylamino]-benzamide]
- inhibition at 10 µM [1]: 27%
- inhibition at 20 µM [2]: -11.4%

Compound: c1cc(Nc2ncc3nnn(C4CCCC4)c3n2)cc(-c2nnn[nH]2)c1 [Compound 67, (3-Cyclopentyl-3H-[1,2,3]triazolo[4,5-d]pyrimidin-5-yl)-[3-(1H-tetrazol-5-yl)-phenyl]-amine]
- inhibition at 10 µM [1]: 15.4%
- inhibition at 20 µM [2]: 44.2%

Compound: CN(C)CC(O)COc1ccc(Nc2ncc3nnn(-c4ccc5ncccc5c4)c3n2)cc1 (stereo not shown) [Compound 13, 1-Dimethylamino-3-[4-(3-quinolin-6-yl-3H-[1,2,3]triazolo[4,5-d]pyrimidin-5-ylamino)-phenoxy]-propan-2-ol]
- inhibition at 10 µM [1]: 24.4%
- inhibition at 20 µM [2]: 72.6%

Compound: CN(CCO)CCCOc1ccc(Nc2ncc3nnn(-c4ccc5c(c4)CCC5)c3n2)cc1 [Compound 88, 2-({3-[4-(3-Indan-5-yl-3H-[1,2,3]triazolo[4,5-d]pyrimidin-5-ylamino)-phenoxy]-propyl}-methyl-amino)-ethanol]
- inhibition at 10 µM [1]: 92.3%
- inhibition at 20 µM [2]: 103%

Compound: CN(C)c1ccc(/C=C/c2ccc(Nc3ncc4nnn(-c5ccc6c(c5)CCC6)c4n3)cc2)cc1 [Compound 7, {4-[2-(4-Dimethylamino-phenyl)-vinyl]-phenyl}-(3-indan-5-yl-3H-[1,2,3]triazolo[4,5-d]pyrimidin-5-yl)-amine]
- inhibition at 10 µM [1]: -5%
- inhibition at 20 µM [2]: 38.7%

Compound: CCN(CC)CCOC(=O)c1ccc(Nc2ncc3nnn(-c4ccc5c(c4)CCC5)c3n2)cc1 [Compound 32, 4-(3-Indan-5-yl-3H-[1,2,3]triazolo[4,5-d]pyrimidin-5-ylamino)-benzoic acid 2-diethylamino-ethyl ester]
- inhibition at 10 µM [1]: 30.2%
- inhibition at 20 µM [2]: 42%

Compound: COc1cc(Nc2ncc3nnn(-c4cc(OC)c(OC)c(OC)c4)c3n2)cc(OC)c1OC [Compound 42, (3,4,5-Trimethoxy-phenyl)-[3-(3,4,5-trimethoxy-phenyl)-3H-[1,2,3]triazolo[4,5-d]pyrimidin-5-yl]-amine]
- inhibition at 10 µM [1]: 35.6%
- inhibition at 20 µM [2]: 3.4%

Compound: Cc1nccc(-c2cccc(-n3nnc4cnc(Nc5ccc(-c6csnn6)cc5)nc43)c2)n1 [Compound 36, {3-[3-(2-Methyl-pyrimidin-4-yl)-phenyl]-3H-[1,2,3]triazolo[4,5-d]pyrimidin-5-yl}-(4-[1,2,3]thiadiazol-4-yl-phenyl)-amine]
- inhibition at 10 µM [1]: -1.2%
- inhibition at 20 µM [2]: 2.3%

Compound: O=C(NCCCN1CCCC1)c1cccc(Nc2ncc3nnn(-c4ccc5c(c4)CCC5)c3n2)c1 [Compound 72, 3-(3-Indan-5-yl-3H-[1,2,3]triazolo[4,5-d]pyrimidin-5-ylamino)-N-(3-pyrrolidin-1-yl-propyl)-benzamide]
- inhibition at 10 µM [1]: 81.5%
- inhibition at 20 µM [2]: 98.4%

Compound: COc1cc(-n2nnc3cnc(Nc4ccc5[nH]ncc5c4)nc32)cc(OC)c1OC [Compound 43]
- inhibition at 10 µM [1]: 33.3%
- inhibition at 20 µM [2]: 11.8%

Compound: CN(C)CC(O)COc1ccc(Nc2ncc3nnn(C4CCCC(C(=O)O)C4)c3n2)cc1 (stereo not shown) [Compound 31, 3-{5-[4-(3-Dimethylamino-2-hydroxy-propoxy)-phenylamino]-[1,2,3]triazolo[4,5-d]pyrimidin-3-yl}-cyclohexanecar-boxylic acid]
- inhibition at 10 µM [1]: 21.4%
- inhibition at 20 µM [2]: 32.9%

Compound: c1cc(OCCCN2CCCC2)ccc1Nc1ncc2nnn(-c3ccc4c(c3)CCC4)c2n1 [Compound 92, (3-Indan-5-yl-3H-[1,2,3]triazolo[4,5-d]pyrimidin-5-yl)-[4-(3-pyrrolidin-1-yl-propoxy)-phenyl]-amine]
- inhibition at 10 µM [1]: 91.2%
- inhibition at 20 µM [2]: 103%

Compound: O=C(NCCCn1ccnc1)c1cccc(Nc2ncc3nnn(-c4ccc5c(c4)CCC5)c3n2)c1 [Compound 79, N-(3-Imidazol-1-yl-propyl)-3-(3-indan-5-yl-3H-[1,2,3]triazolo[4,5-d]pyrimidin-5-ylamino)-benzamide]
- inhibition at 10 µM [1]: 80%
- inhibition at 20 µM [2]: 86.6%

Compound: CCN(CC)CCNC(=O)c1ccc(-n2nnc3cnc(Nc4ccc5c(c4)CCC5)nc32)cc1 [Compound 19, N-(2-Diethylamino-ethyl)-4-[5-(indan-5-ylamino)-[1,2,3]triazolo[4,5-d]pyrimidin-3-yl]-benzamide]
- inhibition at 10 µM [1]: 68.8%
- inhibition at 20 µM [2]: -63.7%
